Measurements as given in US20260041640A1 (INCYCLIX BIO, LLC, priority 2023, published 2026).
Values joined by “and” are separate entries in the source; they are usually repeats but may differ in a detail not shown here. Equal values may be shown once. Read-outs that look alike come from different tables or passages of the source.

Assay: First-in-human clinical study: plasma and whole blood PK of INX-315 (oral QD, ASD tablet)
Type: in vivo
Parameters: AUC Plasma / AUC Whole Blood: unit not given here
Excerpt: All INX-315 tablets were taken at approximately the same time(s) each day.
Samples will also be collected pre-dose on Cycle 1 Days 2, 8, 16, and Day 22, and pre-dose on Day 1 of each subsequent cycle.
Standard non-compartmental PK parameters were estimated.
Geometric mean and geometric CV % will be included in the summary statistics.
PK parameters will be summarized descriptively by dosing cohort. AUC and Cmax values will also be presented in scatter plots. Dose proportionality will be assessed for AUC and Cmax using a power model. The 90% CI of the slope for each PK parameter will be estimated from the model and presented in a summary table.
Cohort 1 enrollment of 6 subjects dosed at 100 mg oral QD was completed in October of 2023.
Patients were upgraded to the 200 mg QD dose level and PK/PD plasma parameters were measured (FIG. 18A).
Patients were administered the 200 mg QD and 300 mg QD dose levels and PK/PD plasma parameters were measured.

[1] = Cohort 1 (100 mg QD), Day 1, individual subjects
[2] = Cohort 1 (100 mg QD), Day 15, individual subjects
[3] = Cohort 2 (200 mg QD), Day 1, individual subjects
[4] = Cohort 2 (200 mg QD), Day 15, individual subjects
[5] = Cohort 3 (300 mg QD), Day 1, individual subjects

## NS(=O)(=O)c1ccc(Nc2ncc3cc4n(c3n2)C2(CCCCC2)C(=O)NN4)cc1 [INX-315]
100 mg QD, C 1 D 1 (Day 1)
  Mean free plasma trough concentration: 2.98 (6) ng/mL and 2.98 ng/mL
100 mg QD, C 1 D 7 (Day 7)
  Mean free plasma trough concentration: 5.7 (6) ng/mL and 5.71 ng/mL
100 mg QD, C 1 D 14
  Mean free plasma trough concentration: 4.72 ng/mL
100 mg QD, C 1 D 15
  Mean free plasma trough concentration: 5.43 ng/mL
100 mg QD, C 1 D 21
  Mean free plasma trough concentration: 4.72 ng/mL
100 mg QD, C 2 D 1
  Mean free plasma trough concentration: 4.32 ng/mL
100 mg QD, C 3 D 1
  Mean free plasma trough concentration: 4.27 ng/mL
100 mg QD, C 4 D 1
  Mean free plasma trough concentration: 5.91 ng/mL
200 mg QD, C 1 D 1 (Day 1)
  Mean free plasma trough concentration: 7.3 (2) ng/mL and 7.31 ng/mL
200 mg QD, C 1 D 7 (Day 7)
  Mean free plasma trough concentration: 10.2 (2) ng/mL and 10.16 ng/mL
[1]
  AUC Plasma: 2532 and 1886 and 3391 and 2271 and 3370 and 640.8
  AUC Whole Blood: 44857 and 38499 and 41732 and 33139 and 60740 and 13440
[2]
  AUC Plasma: 1276 and 5858 and 3444 and 6910 and 1951
  AUC Whole Blood: 37642 and 44316 and 118285 and 31754
Cohort 1, 100 mg QD
  time to steady state trough concentrations: ≤ 7 days
[3]
  AUC Plasma: 4955 and 7528 and 11982 and 19801
  AUC Whole Blood: 132257 and 94340 and 131625
[4]
  AUC Plasma: 6987 and 6286 and 18669 and 13618
  AUC Whole Blood: 94895 and 236613 and 183345 and 112733
[5]
  AUC Plasma: 12111 and 11382 and 8338 and 11173
  AUC Whole Blood: 149733 and 88350 and 116734 and 106858
human, plasma and whole blood, oral, 100 mg, preliminary data of the expanded cohort 1, 100 mg QD, read-out: t1/2 (converted)
  half-life: ≥ 12 h
human, plasma, oral, 100 mg, 100 mg QD (n = 6), 0.5 hr
  concentration at 0.5 h: 18.9 ng/mL
human, plasma, oral, 100 mg, 100 mg QD (n = 6), 1.0 hr
  concentration at 1 h: 71.4 ng/mL
human, plasma, oral, 100 mg, 100 mg QD (n = 6), 2.0 hr
  concentration at 2 h: 158 ng/mL
human, plasma, oral, 100 mg, 100 mg QD (n = 6), 6.0 hr
  concentration at 6 h: 132 ng/mL
human, plasma, oral, 100 mg, 100 mg QD (n = 6), 8.0 hr
  concentration at 8 h: 121 ng/mL
human, plasma, oral, 100 mg, 100 mg QD (n = 6), […], read-out: Mean plasma concentration
  concentration at 24 h: 57.4 ng/mL
human, plasma, oral, 100 mg, plasma, 100 mg QD (n = 6), read-out: Total Area (AUC)
  AUC: 2400 ng·h/mL
human, plasma, oral, 100 mg, plasma, 100 mg QD, Day 1 (Example 10), read-out: Cmax
  Cmax: 148 ng/mL
human, plasma, oral, 100 mg, plasma, 100 mg QD, Day 1, Cohort 1 (Table 27), read-out: AUClast, geometric mean
  AUC(0-t): 2640 ng·h/mL
human, plasma, oral, 100 mg, plasma, 100 mg QD, Day 1, Cohort 1 (Table 27), read-out: Cmax, geometric mean
  Cmax: 193 ng/mL
human, plasma, oral, 100 mg, plasma, 100 mg QD, Day 1, Cohort 1 (Table 27), read-out: Tmax, median
  Tmax: 2 h
human, plasma, oral, 100 mg, plasma, 100 mg QD, Day 1, Cohort 1 (Table 27), read-out: t1/2, geometric mean (converted)
  half-life: 12.6 h
human, plasma, oral, 100 mg, plasma, 100 mg QD, Day 1, average of five human patients (Example 10), read-out: AUC
  AUC: 2020 ng·h/mL
human, plasma, oral, 100 mg, plasma, 100 mg QD, Day 1, individual patients, read-out: AUClast
  AUC(0-t): 3490 ng·h/mL
human, plasma, oral, 100 mg, plasma, 100 mg QD, Day 1, individual patients, read-out: t1/2 (converted)
  half-life: 15.1 h
human, plasma, oral, 100 mg, plasma, 100 mg QD, Day 1 observed, mean of first two patients, read-out: AUC
  AUC: 3450 ng·h/mL
human, plasma, oral, 100 mg, plasma, 100 mg QD, Day 1 observed, mean of first two patients, read-out: Cmax
  Cmax: 196 ng/mL
human, plasma, oral, 100 mg, plasma, 100 mg QD, Day 1 observed, mean of first two patients, read-out: Cmin
  concentration at 1 day: 103 ng/mL
human, plasma, oral, 100 mg, plasma, 100 mg QD, Day 1 observed, mean of first two patients, read-out: Cmin^free
  concentration at 1 day: 5.4 ng/mL
human, plasma, oral, 100 mg, plasma, 100 mg QD, Day 15 (Example 10), read-out: AUC
  AUC: 3290 ng·h/mL
human, plasma, oral, 100 mg, plasma, 100 mg QD, Day 15 (Example 10), read-out: Cmax
  Cmax: 211 ng/mL
human, plasma, oral, 100 mg, plasma, 100 mg QD, Day 15, individual patients, read-out: AUClast
  AUC(0-t): 7240 ng·h/mL
human, plasma, oral, 100 mg, plasma, 100 mg QD, Day 15, individual patients, read-out: Cmax
  Cmax: 457 ng/mL
human, plasma, oral, 100 mg, plasma, 100 mg QD, Day 15, individual patients, read-out: t1/2 (converted)
  half-life: 17 h
human, plasma, oral, 100 mg, plasma, 100 mg QD, Day 15 observed, mean of first two patients, read-out: AUC
  AUC: 6580 ng·h/mL
human, plasma, oral, 100 mg, plasma, 100 mg QD, Day 15 observed, mean of first two patients, read-out: Cmax
  Cmax: 408 ng/mL
human, plasma, oral, 100 mg, plasma, 100 mg QD, Day 15 observed, mean of first two patients, read-out: Cmin
  concentration at 15 day: 177 ng/mL
